Results as given in US20230210825A1, “METHODS AND COMPOSITIONS FOR TREATING SUBJECTS WITH METABOLIC DISORDERS AND CORONAVIRUS INFECTIONS” (CIRIUS THERAPEUTICS, INC., priority 2020, published 2023).

What was measured:
[1] = target: T1, PPARγ (Homo sapiens, UniProt P37231); assay: Relative binding affinity for PPARγ (FIG. 1); conditions: FIG. 1, relative binding affinity
T1 sequence (P37231 1-505): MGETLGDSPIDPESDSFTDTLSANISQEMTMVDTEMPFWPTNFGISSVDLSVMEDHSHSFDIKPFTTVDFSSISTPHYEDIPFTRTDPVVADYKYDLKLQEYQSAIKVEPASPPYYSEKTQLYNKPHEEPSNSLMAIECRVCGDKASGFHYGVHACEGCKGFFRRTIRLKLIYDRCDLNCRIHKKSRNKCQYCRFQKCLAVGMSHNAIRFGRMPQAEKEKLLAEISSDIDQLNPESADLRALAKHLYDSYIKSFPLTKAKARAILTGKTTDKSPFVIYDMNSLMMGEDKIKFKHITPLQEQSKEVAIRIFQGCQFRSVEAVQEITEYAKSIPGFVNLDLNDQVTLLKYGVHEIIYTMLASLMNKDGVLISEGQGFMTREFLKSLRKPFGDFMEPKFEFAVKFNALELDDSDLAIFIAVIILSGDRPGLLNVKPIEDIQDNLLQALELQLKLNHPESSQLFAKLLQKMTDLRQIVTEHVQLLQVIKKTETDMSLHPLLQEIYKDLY

[2] = target: CYP2C8 (Homo sapiens, UniProt P10632)
CYP2C8, sequence (P10632 whole entry): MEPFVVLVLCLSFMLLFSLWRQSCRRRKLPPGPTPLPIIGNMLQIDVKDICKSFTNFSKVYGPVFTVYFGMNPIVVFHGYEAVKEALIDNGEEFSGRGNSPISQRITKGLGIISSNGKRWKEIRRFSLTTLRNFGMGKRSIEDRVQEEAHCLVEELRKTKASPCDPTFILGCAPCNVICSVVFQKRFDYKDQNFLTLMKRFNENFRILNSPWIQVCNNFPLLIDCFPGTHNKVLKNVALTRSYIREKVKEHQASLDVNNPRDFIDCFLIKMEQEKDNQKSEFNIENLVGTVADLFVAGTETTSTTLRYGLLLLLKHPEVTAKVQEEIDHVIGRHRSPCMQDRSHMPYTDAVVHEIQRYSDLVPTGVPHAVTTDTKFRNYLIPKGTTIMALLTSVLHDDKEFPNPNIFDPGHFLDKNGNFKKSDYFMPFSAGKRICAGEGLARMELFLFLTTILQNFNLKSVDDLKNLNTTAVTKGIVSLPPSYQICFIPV

[3] = target: T2, organic anion transporter 3 (OAT3) (Homo sapiens, UniProt Q8TCC7); assay: OAT3 inhibition
T2 sequence (Q8TCC7 1-542): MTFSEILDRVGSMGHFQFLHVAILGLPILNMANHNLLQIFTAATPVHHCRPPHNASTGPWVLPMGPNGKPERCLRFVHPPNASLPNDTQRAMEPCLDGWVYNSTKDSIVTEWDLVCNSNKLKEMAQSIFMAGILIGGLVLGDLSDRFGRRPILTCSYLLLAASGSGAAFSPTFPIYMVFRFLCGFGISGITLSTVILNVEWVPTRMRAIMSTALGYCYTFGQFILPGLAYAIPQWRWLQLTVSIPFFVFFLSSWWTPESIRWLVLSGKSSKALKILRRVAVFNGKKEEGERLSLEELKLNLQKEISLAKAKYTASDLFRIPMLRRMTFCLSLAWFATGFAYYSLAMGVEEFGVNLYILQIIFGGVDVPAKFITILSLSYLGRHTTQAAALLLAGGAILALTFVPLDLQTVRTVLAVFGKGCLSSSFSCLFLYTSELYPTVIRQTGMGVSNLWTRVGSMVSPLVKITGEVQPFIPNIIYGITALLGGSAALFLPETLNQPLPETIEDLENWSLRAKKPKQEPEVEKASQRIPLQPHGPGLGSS

[4] = metabolite share of combined exposure after MSDC-0602
[5] = target: T3, mitochondrial pyruvate carrier (MPC) (Homo sapiens, UniProt O95563+Q9Y5U8); assay: Relative binding affinity for the MPC (FIG. 2)
T3 sequence (Q9Y5U8 1-109): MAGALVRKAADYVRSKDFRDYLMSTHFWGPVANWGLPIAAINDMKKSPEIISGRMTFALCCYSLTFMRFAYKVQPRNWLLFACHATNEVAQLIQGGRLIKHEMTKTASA
T3 sequence (O95563 1-127): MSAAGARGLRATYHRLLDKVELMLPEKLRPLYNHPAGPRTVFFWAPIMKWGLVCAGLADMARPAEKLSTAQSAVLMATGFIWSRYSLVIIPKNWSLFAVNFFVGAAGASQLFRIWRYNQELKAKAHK

[6] = target: multidrug resistance protein 1 (MDR1) (Homo sapiens, UniProt P08183); assay: MDR1 inhibition
[7] = tested on: mouse model of a metabolic disorder; conditions: reported earlier; effects require MPC expression in hepatocytes; cited from earlier work
[8] = target: T4, breast cancer-related protein (BCRP) (Homo sapiens, UniProt Q9UNQ0); assay: BCRP inhibition; conditions: not told
T4 sequence (Q9UNQ0 1-655): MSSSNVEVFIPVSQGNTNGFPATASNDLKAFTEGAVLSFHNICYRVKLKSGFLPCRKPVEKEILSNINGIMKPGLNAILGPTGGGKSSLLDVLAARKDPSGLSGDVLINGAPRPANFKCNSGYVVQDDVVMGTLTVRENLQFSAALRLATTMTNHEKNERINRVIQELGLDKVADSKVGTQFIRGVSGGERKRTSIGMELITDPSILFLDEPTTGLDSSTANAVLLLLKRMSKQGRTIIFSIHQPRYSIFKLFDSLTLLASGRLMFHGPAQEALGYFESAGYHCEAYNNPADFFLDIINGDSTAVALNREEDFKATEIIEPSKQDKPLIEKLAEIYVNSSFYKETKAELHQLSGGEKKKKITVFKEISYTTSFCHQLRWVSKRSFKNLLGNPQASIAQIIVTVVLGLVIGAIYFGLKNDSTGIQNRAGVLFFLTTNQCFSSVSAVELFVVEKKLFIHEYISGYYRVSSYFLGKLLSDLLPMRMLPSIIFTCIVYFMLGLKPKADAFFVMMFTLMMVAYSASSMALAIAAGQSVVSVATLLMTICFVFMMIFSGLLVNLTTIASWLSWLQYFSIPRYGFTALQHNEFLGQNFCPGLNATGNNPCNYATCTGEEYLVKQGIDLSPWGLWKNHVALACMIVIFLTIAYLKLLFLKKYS

[9] = Earlier phase 2 trials: adiponectin at 28 days; set-up: species or system human; conditions: in vivo

Row | SMILES | reduction in binding affinity for PPARγ compared to pioglitazone [1] | inhibition of CYP2C8 [2] | inhibition of organic anion transporter 3 (OAT3) [3] | share of the combined exposure [4] | binding to the MPC [5] | inhibition of MDR1 [6] | damage caused to the liver [7] | inhibition of BCRP [8] | increase in adiponectin levels [9] [%]
1 | COc1cccc(C(O)COc2ccc(CC3SC(=O)NC3=O)cc2)c1 (centres unmarked) [MSDC-0597] | more than fifty-fold | weak inhibitor | inhibitors | more than 90% | maintain, and in some cases improve, binding to the MPC | – | – | – | –
2 | COc1cccc(C(=O)COc2ccc(CC3SC(=O)NC3=O)cc2)c1 (centres unmarked) [MSDC-0602] | – | – | inhibitors | – | maintain, and in some cases improve, binding to the MPC | inhibitor | prevents and reverses damage caused to the liver | inhibitor | 146
